The values below come from US12258336B2, “Preparation of seimicarbazide-sensitive amine oxidase inhibitor and use thereof” (SHANGHAI ENNOVABIO PHARMACEUTICALS CO., LTD., priority 2018, dated 2025).

Some results are limits rather than exact numbers.

Holding throughout (format): biochemical
The target in assay [1] is T1, Recombinant human SSAO protein (Homo sapiens, UniProt Q16853).
T1 construct: Eli Lilly (provided, not a catalogue product)
T1 sequence (Q16853 1-763): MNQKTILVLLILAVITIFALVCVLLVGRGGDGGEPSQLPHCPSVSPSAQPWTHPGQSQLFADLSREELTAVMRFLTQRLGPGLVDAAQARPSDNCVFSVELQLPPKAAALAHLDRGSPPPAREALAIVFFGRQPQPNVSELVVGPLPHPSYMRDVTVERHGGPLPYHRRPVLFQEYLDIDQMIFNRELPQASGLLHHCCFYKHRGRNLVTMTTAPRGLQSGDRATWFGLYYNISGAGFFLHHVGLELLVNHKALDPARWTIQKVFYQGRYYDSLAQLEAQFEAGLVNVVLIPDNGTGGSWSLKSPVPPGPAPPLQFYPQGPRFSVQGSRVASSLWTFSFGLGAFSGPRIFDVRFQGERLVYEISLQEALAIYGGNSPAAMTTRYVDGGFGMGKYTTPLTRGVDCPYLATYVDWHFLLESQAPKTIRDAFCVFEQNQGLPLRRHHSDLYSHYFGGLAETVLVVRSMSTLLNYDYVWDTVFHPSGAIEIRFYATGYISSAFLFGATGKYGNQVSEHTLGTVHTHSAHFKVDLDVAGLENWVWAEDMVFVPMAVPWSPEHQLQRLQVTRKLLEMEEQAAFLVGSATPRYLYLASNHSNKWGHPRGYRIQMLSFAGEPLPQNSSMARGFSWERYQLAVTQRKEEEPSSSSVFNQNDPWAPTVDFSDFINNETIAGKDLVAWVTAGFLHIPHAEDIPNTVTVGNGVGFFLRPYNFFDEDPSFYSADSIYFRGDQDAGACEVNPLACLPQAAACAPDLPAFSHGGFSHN
Description: In vitro inhibitory activity on SSAO/VAP-1 (MAO-Glo assay), human. How it is done:
This assay was used to evaluate the in vitro inhibitory activity of the compounds on SSAO/VAP-1 of different species. Recombinant human SSAO protein, mouse SSAO protein or rat SSAO protein (provided by Eli Lilly) were used. The enzyme activity detection kit, MAO-Glo Assay kit (V1402) was purchased from Promega. Enzyme reaction buffer (50 mM HEPES, 120 mM NaCl, 5 mM KCl, 2 mM CaCl2, 1.4 mM MgCl2, 0.001% Tween-20, pH7.4) was prepared. The test compound was dissolved in DMSO and diluted by 3-fold concentration in gradient. The final concentration of test compound in a 10 μL reaction system was 1 μM to 0.05 nM when SSAO was detected. The content of DMSO in the detection reaction was 1%. After the solution of test compound in DMSO was diluted in the enzyme reaction buffer at a volume ratio of 1:25, 2.5 μL of which was added to each well of detection plate, two replicates for each concentration. 5 μL of SSAO protein diluted in the enzyme reaction buffer was added to each well, the final concentration of which was 10 nM to 80 nM in 10 μL reaction system. The mixture was incubated at room temperature for 10 minutes. 2.5 μL of the reaction substrate diluted in the enzyme reaction buffer was added to each well, the final concentration of which was 10 μM in 10 μL reaction system. After the mixture was reacted at room temperature for 120 minutes, 10 μL of detection reagent was added to each well. The reaction solution was incubated for 20 minutes at room temperature, and the plate was read with Synergy Neo 2 for detection. The value was converted into inhibition rate by the following formula: Inhibition rate=(Signalpositive−Signaltest)/(Signalpositive−Signalnegative)×100%
Signalpositive was positive control without test compound. Signalnegative was negative control without test compound and SSAO enzyme, and Signaltest was detection value of each compound at different concentrations. IC50 value was calculated by using 4 parameter curve fitting.

The target in a further assay is T2, Recombinant human MAO-A (Homo sapiens, UniProt P21397).
T2 construct: purchased Sigma M7316
T2 sequence (P21397 1-527): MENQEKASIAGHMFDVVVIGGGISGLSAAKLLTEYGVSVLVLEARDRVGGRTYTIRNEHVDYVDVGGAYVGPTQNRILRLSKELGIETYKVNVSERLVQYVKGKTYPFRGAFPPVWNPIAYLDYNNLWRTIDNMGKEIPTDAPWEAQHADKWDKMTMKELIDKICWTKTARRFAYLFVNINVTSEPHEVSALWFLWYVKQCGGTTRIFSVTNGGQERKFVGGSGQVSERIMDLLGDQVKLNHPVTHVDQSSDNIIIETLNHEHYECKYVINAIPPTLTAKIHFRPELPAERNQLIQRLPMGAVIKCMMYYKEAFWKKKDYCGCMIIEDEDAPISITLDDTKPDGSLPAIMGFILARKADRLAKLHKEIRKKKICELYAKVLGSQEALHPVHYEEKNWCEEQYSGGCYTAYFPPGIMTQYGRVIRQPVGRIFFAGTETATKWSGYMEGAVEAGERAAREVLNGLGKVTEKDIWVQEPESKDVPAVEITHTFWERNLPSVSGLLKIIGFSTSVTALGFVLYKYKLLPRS
The experiment in a line: Inhibitory activity on MAO-A. How it is done: (§1) Recombinant human MAO-A and MAO-B protein was purchased from Sigma (M7316, M7441). Other reagents are the same as Biological Test Example 1. The final concentration of test compound in 10 μL reaction system was 100 μM to 5 nM when MAO-A and MAO-B were detected. The final concentrations of MAO-A and MAO-B protein in 10 μL reaction system were 70 nM and 300 nM, respectively, while other reaction conditions were the same as those in Biological Test Example 1. Data analysis and IC50 calculation method were the same as those in Biological Test Example 1.

The target of a further assay is T3, Recombinant human MAO-B (Homo sapiens, UniProt P27338).
T3 construct: purchased Sigma M7441
T3 sequence (P27338 1-520): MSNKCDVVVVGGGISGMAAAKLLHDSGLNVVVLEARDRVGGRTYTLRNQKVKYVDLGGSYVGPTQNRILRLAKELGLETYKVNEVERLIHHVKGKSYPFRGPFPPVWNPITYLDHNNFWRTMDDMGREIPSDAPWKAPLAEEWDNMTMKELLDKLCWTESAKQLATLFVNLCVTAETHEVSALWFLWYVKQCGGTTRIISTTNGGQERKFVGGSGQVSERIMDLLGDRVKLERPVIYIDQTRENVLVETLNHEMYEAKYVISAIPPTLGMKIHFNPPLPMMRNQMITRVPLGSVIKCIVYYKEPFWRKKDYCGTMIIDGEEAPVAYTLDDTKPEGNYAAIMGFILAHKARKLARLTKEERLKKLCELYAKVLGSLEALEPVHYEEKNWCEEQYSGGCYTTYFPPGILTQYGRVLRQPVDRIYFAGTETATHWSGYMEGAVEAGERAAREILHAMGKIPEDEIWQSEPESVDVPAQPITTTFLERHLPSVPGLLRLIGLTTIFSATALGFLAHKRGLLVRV
Description: Inhibitory activity on MAO-B. How it is done: as §1

A word on the IC50: it is the midpoint of a concentration-inhibition curve. As to `COC1CC2CC1CN2c1ncc(OC/C(=C/F)CN)cn1` (stereo not drawn) [Example 2], the results for the IC50 (in assay [1]; on Recombinant human MAO-A; on Recombinant human MAO-B) were below 0.01 µM, 2 to 100 µM and above 20 µM, respectively.

With `CC1(C)CN(C2COC2)CCN1c1ncc(OC/C(=C/F)CN)cn1` [Example 5], the IC50 in assay [1] was 0.01 to 0.05 µM; at Recombinant human MAO-A it was above 100 µM; at Recombinant human MAO-B, above 20 µM.

On to `CC1(C)CN(c2ncc(OC/C(=C/F)CN)cn2)CCN1C1COC1` [Example 10], for which the IC50 is 0.01 to 0.05 µM in assay [1], above 100 µM on Recombinant human MAO-A and above 20 µM on Recombinant human MAO-B.

Consider `NC/C(=C\F)COc1cnc(N2CCN(c3cnc(N4CCN(C5COC5)CC4)nc3)CC2)nc1` [Example 9], for which the IC50 in assay [1] is below 0.01 µM; on Recombinant human MAO-A, above 100 µM; at Recombinant human MAO-B, above 20 µM.

Consider `NC/C(=C/F)COc1cnc(N2CCN(C3COC3)CC2)nc1` [Example 8], for which the IC50 was below 0.01 µM in assay [1], 2 to 100 µM at Recombinant human MAO-A and 5 to 20 µM at Recombinant human MAO-B.

On to `NC/C(=C\F)COc1cnc(N2CCN(C3COC3)CC2)nc1` [Example 4, (E)-3-fluoro-2-(((2-(4-(oxbutan-3-yl)piperazin-1-yl)pyrimidin-5-yl)oxo)methyl)prop-2-en-1-amine], for which the IC50 in assay [1] was below 0.01 µM; on Recombinant human MAO-A, above 100 µM; at Recombinant human MAO-B, above 20 µM.

Take `CC1CN(c2ncc(OC/C(=C/F)CN)cn2)CC(C)N1C1COC1` (stereo not drawn) [Example 1, (E)-2-(((2-(3,5-dimethyl-4-(oxbutan-3-yl)piperazin-1-yl)pyrimidin-5-yl)oxo)methyl)-3-fluoroprop-2-en-1-amine]: the IC50 is below 0.01 µM in assay [1], above 100 µM at Recombinant human MAO-A and above 20 µM at Recombinant human MAO-B.

Turning to `NC/C(=C\F)COc1cnc(N2CCC3(CC2)COC3)nc1` [Example 3], the IC50 was below 0.01 µM in assay [1], 2 to 100 µM on Recombinant human MAO-A and above 20 µM at Recombinant human MAO-B.

As for `N#Cc1cc(OC/C(=C/F)CN)cnc1N1CCN(C2COC2)CC1` [Example 7], the IC50 in assay [1] was above 0.05 µM; at Recombinant human MAO-A it was above 100 µM; on Recombinant human MAO-B it was 5 to 20 µM.

Consider `NC/C(=C\F)COc1cnc(N2CC3CCC(C2)N3C2COC2)nc1` [Example 6], for which the IC50 was 0.01 to 0.05 µM in assay [1], above 100 µM on Recombinant human MAO-A and above 20 µM at Recombinant human MAO-B.

For `COC1CC2CCC(C1)N2c1ncc(OC/C(=C/F)CN)cn1` (stereo not drawn) [Example 12], the IC50 is below 0.01 µM in assay [1], 2 to 100 µM at Recombinant human MAO-A and above 20 µM at Recombinant human MAO-B.
